Data taken from patent publication US20250282770A1, “BIOLUMINESCENT PROBES TO TRACK STEM CELLS IN VIVO” (THE BOARD OF TRUSTEES OF THE UNIVERSITY OF ILLINOIS, priority 2024, published 2025).

What was measured:
Assay in all cases: AlDeLuc isoform selectivity assay
Assay type in all cases: biochemical
Conditions in all cases: 2 μM, pre-activated with HCl, 60 min room temperature
ALDH1A1 = target: T1, ALDH1A1 (Homo sapiens, UniProt P00352)
T1 construct: inferred from Ni-NTA purification; made in house; host or cells: E. coli BL21(DE3)
T1 sequence (P00352 1-501): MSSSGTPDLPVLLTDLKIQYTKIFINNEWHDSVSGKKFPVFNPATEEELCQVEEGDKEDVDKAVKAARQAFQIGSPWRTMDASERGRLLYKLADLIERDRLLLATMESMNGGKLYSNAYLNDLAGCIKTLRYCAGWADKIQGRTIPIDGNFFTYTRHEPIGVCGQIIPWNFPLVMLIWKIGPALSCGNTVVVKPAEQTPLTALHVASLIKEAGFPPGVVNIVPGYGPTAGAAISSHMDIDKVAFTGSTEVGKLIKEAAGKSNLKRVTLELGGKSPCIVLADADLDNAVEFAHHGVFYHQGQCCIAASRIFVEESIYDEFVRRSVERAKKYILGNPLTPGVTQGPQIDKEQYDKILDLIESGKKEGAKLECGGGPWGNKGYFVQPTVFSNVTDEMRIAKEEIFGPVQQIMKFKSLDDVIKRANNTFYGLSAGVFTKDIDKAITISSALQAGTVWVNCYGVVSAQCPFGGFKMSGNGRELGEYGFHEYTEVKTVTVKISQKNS
Description: (§1) Expression and Purification of ALDH Expression constructs for recombinant human ALDH1A1, ALDH1A2, ALDH1A3, and ALDH2, ALDH3A1, ALDH4A1, and ALDH5A1 were generously provided by Prof. Daria Mochly-Rosen (Stanford, Chemical and Systems Biology). E. coli BL21(DE3) cells with transformed with each of the above constructs. Colonies were selected from an agar plate containing […] ampicillin and grown overnight (37° C., 220 rpm) in LB media containing […] ampicillin. The overnight culture (10 mL) was inoculated into 1000 mL LB supplemented with […] ampicillin. When the O.D. reached ˜0.5, IPTG was added to a final concentration of 1 mM and incubated overnight (30° C., 200 rpm, 18 h). The cells were harvested via centrifugation (4° C., 4,000 rpm, 90 min) and the cell pellets were stored at −80° C. until purification.
(§2) ALDH Isoform Activity Determination. The activity of each isoform of ALDH was confirmed by monitoring the production of NADH at 340 nm when incubated with the most used substrate for that enzyme (i.e., benzaldehyde for ALDH3A1 and propionaldehyde for all other isoforms). Each isoform was diluted with 50 mM triethanolamine (TEA, pH 7.4) to a final concentration of 0.5 μM and placed in a 1 mL quartz cuvette. Prior to measurement, NAD^+ was added to a final concentration of 2.5 mM and the preferred substrate was added to a final concentration of 1 mM. Absorbance spectra was taken from 300 to 500 nm every 30 seconds for 15 minutes. Activity for each enzyme was calculated from the slope of absorbance increase at 340 nm over time.
(§3) AlDeLuc Isoform Selectivity Assay. Activation of AlDeLuc was assessed using the necessary amount of enzyme that gave the activity of 0.5 nmol of substrate turned over/minute. All enzymatic reactions were performed in 50 mM triethanolamine (TEA) buffer (pH 7.4) with 2.5 mM NAD^+. To prepare the probe solution, AlDeLuc was dissolved in DMSO and incubated with 1 M HCl. After an hour, this solution was neutralized with 1 M NaOH, and diluted with PBS. To a clear 24-well plate, TEA buffer, NAD^+, the ALDH isoform, and then AlDeLuc (2 μM) were added sequentially to a final volume of 1 mL. After an hour incubation at room temperature, ATP-MgSO4 (45 μL, prepared by mixing 17.78 mM ATP-Mg and 35.56 mM MgSO4 in a 1:1 ratio in PBS buffer) and luciferase (5 μL, 1 mg/mL in PBS containing 10% glycerol) were added to initiate bioluminescence production. The wells were immediately imaged using the IVIS imaging system in open mode. ROIs were drawn around each well and the signal intensity was quantified using the Living Image Analysis. The signal enhancement was normalized relative to the ALDH2 isoform.

ALDH1A2 = target: T2, ALDH1A2 (Homo sapiens, UniProt O94788)
T2 construct: inferred from Ni-NTA purification; made in house; host or cells: E. coli BL21(DE3)
T2 sequence (O94788 whole entry): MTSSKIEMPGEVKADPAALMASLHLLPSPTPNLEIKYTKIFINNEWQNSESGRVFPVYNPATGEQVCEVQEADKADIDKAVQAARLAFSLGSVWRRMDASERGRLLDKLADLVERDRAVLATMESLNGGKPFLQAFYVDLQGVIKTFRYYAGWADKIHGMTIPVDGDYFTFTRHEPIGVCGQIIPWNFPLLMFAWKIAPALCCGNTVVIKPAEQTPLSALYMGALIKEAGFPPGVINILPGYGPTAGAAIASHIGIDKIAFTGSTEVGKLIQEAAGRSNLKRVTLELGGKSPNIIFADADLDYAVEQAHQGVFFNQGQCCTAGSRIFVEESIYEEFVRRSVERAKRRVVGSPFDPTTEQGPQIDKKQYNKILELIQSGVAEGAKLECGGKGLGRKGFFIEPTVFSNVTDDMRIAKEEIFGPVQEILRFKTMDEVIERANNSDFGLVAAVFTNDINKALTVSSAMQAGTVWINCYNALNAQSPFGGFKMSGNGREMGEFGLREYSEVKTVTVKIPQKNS
Description: as §1, §2, §3

ALDH1A3 = target: T3, ALDH1A3 (Homo sapiens, UniProt P47895)
T3 construct: inferred from Ni-NTA purification; made in house; host or cells: E. coli BL21(DE3)
T3 sequence (P47895 whole entry): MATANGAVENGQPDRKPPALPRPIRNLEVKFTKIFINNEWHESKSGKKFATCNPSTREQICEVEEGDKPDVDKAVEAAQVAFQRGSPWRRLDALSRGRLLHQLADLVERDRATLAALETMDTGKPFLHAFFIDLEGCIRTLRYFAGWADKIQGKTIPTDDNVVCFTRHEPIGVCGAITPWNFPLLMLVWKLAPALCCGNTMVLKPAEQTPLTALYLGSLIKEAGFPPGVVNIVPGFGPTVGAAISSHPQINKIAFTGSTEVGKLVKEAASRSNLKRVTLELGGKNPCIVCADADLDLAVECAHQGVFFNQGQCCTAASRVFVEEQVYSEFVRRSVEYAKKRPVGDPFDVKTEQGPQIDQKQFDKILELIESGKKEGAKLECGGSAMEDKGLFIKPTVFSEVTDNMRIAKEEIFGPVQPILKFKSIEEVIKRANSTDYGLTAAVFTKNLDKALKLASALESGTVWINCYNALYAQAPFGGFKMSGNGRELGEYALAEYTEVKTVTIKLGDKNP
Description: as §1, §2, §3

ALDH2 = target: T4, ALDH2 (Homo sapiens, UniProt P05091)
T4 construct: inferred from Ni-NTA purification; made in house; host or cells: E. coli BL21(DE3)
T4 sequence (P05091 18-517): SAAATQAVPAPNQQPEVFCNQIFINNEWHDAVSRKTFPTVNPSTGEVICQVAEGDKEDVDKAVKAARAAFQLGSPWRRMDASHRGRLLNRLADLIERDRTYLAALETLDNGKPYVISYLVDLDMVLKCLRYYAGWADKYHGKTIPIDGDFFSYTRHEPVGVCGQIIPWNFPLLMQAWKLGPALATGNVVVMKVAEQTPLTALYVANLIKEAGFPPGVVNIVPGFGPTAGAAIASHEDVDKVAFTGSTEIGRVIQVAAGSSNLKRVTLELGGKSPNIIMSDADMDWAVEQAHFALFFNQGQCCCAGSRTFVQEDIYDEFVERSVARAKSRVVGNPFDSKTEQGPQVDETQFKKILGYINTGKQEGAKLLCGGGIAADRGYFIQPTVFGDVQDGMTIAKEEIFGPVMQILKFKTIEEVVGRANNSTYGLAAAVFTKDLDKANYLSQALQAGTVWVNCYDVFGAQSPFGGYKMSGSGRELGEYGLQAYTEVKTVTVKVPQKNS
Description: as §1, §2, §3

ALDH3A1 = target: T5, ALDH3A1 (Homo sapiens, UniProt P30838)
T5 construct: inferred from Ni-NTA purification; made in house; host or cells: E. coli BL21(DE3)
T5 sequence (P30838 whole entry): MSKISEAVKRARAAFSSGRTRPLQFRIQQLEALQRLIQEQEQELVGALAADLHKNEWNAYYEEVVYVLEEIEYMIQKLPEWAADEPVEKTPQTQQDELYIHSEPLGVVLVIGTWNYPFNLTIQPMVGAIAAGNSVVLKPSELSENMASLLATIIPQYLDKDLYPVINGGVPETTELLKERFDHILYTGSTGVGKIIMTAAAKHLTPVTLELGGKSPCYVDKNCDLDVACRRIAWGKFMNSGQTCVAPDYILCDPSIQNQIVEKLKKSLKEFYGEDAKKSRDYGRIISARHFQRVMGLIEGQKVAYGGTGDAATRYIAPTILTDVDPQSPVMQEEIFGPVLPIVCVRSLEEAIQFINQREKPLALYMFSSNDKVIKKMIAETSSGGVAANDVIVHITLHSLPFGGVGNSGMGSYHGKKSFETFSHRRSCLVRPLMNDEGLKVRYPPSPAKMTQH
Description: as §1, §2, §3

ALDH4A1 = target: T6, ALDH4A1 (Homo sapiens, UniProt P30038)
T6 construct: inferred from Ni-NTA purification; made in house; host or cells: E. coli BL21(DE3)
T6 sequence (P30038 25-563): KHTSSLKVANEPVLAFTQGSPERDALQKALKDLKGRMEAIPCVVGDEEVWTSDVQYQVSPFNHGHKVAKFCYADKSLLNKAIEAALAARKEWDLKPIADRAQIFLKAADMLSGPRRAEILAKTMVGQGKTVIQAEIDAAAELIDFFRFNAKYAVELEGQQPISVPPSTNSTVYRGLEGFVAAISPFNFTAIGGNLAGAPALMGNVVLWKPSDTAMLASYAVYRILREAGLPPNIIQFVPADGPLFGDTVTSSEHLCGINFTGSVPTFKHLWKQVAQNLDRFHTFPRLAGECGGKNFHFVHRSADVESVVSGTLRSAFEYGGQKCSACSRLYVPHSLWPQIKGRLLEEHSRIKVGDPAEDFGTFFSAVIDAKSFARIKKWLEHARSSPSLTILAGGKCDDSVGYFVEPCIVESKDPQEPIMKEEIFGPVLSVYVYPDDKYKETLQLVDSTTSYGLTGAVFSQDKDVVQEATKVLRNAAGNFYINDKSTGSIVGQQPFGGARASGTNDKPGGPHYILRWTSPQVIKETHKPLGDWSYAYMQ
Description: as §1, §2, §3

ALDH5A1 = target: T7, ALDH5A1 (Homo sapiens, UniProt P51649)
T7 construct: inferred from Ni-NTA purification; made in house; host or cells: E. coli BL21(DE3)
T7 sequence (P51649 48-535): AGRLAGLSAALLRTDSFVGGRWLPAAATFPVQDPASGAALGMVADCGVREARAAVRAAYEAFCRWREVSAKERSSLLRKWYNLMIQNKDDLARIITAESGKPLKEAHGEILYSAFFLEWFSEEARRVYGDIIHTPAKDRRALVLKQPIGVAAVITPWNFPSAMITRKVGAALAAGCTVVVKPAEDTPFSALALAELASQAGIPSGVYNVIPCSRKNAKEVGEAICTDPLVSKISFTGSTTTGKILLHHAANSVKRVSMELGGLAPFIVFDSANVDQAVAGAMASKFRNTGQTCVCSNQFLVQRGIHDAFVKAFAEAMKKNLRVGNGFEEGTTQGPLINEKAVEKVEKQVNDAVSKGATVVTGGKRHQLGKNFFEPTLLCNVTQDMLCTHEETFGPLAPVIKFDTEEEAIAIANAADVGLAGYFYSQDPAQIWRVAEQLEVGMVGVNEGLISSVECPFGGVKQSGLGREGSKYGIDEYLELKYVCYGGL
Description: as §1, §2, §3

CCN(CC)c1ccc2nc(C3=N[C@@H](C(OC)OC)CS3)sc2c1 [AlDeLuc, (S)-2-(4-(dimethoxymethyl)-4,5-dihydrothiazol-2-yl)-N,N-diethylbenzo[d]thiazol-6-amine]
bioluminescence (ALDH1A1): significant bioluminescence
bioluminescence (ALDH1A2): only treatment with ALDH1A1 and luciferase generated significant bioluminescence
bioluminescence (ALDH1A3): only treatment with ALDH1A1 and luciferase generated significant bioluminescence
bioluminescence (ALDH2): only treatment with ALDH1A1 and luciferase generated significant bioluminescence
bioluminescence (ALDH3A1): only treatment with ALDH1A1 and luciferase generated significant bioluminescence
bioluminescence (ALDH4A1): only treatment with ALDH1A1 and luciferase generated significant bioluminescence
bioluminescence (ALDH5A1): only treatment with ALDH1A1 and luciferase generated significant bioluminescence
